Patent publication US7939286B2, “Enhancing a luminescent signal” (Targeting Systems, priority 2005, dated 2011)
Values joined by “and” are separate entries in the source; they are usually repeats but may differ in a detail not shown here. Equal entries are not always repeated.

Legend:
[1] = biological target: Firefly luciferase (Photinus pyralis, UniProt P08659); assay: Summary of effect on bioluminescent signal of firefly luciferase; type: biochemical
[2] = biological target: T1, Renilla luciferase (Renilla reniformis, UniProt P27652); assay: Bioluminescence of Renilla luciferase in assay buffer (luminometer); type: biochemical; settings: for stability of the luminescent signal in the presence of different detergents: 0.2% and 0.02% detergent; for effect of 0.2% detergent on Renilla luciferase activity (FIG. 7): 0.2% v/v detergent, T=0 and T=18 minutes; for effect on magnitude (M at t = 1-2 minutes) of bioluminescent signal, Bacterial Rluc / effect on stability (S at time = 7-10 minutes) of bioluminescent signal, Bacterial Rluc: comparison: 1% EDTA to 0%, 0.2% NP40 to 0.025% or 0%, 4 μM coel. to 1.3 μM, 4 μM benzyl coel. to 1.3 μM; for Renilla luciferase bioluminescence t = 0 / Renilla luciferase bioluminescence t = 20: 1.3 μM substrate in 0.5xPBS, 0.025% NP40; for Renilla luciferase bioluminescence t = 0: t = 0 minutes; for Renilla luciferase bioluminescence t = 20: t = 20 minutes
T1 construct: purchased Prolume/NanoLight Technologies, Pinetop, Ariz
T1 sequence (P27652 1-311): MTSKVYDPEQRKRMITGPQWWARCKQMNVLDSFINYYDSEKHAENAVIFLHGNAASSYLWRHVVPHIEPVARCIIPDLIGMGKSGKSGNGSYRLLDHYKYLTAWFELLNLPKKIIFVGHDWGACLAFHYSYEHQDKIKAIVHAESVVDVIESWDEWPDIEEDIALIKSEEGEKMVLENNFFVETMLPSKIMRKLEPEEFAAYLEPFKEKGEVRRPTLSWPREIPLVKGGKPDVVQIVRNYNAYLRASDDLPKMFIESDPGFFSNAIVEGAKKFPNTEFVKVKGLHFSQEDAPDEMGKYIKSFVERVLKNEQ
Source text: Renilla luciferase is commercially available from Prolume/NanoLight Technologies, Pinetop, Ariz. Recombinant bacterial Gaussia luciferase was obtained from Prolume/Nanolight Technologies, Pinetop, Ariz.

[3] = system: purified recombinant bacterial Gaussia luciferase; assay: Bioluminescence of recombinant bacterial Gaussia luciferase in assay buffer (luminometer); type: biochemical, Gaussia princeps; settings: for effect on magnitude (M at t = 1-2 minutes) of bioluminescent signal, bacterial Gluc / effect on stability (S at time = 7-10 minutes) of bioluminescent signal, bacterial Gluc: comparison: 1% EDTA to 0%, 0.2% NP40 to 0.025% or 0%, 4 μM coel. to 1.3 μM, 4 μM benzyl coel. to 1.3 μM; for Gaussia luciferase (bacterial) bioluminescence t = 0 / Gaussia luciferase (bacterial) bioluminescence t = 10: 1.3 μM substrate in 0.5xPBS; for Gaussia luciferase (bacterial) bioluminescence t = 0: t = 0 minutes; for Gaussia luciferase (bacterial) bioluminescence t = 10: t = 10 minutes
Description: Renilla luciferase is commercially available from Prolume/NanoLight Technologies, Pinetop, Ariz. Recombinant bacterial Gaussia luciferase was obtained from Prolume/Nanolight Technologies, Pinetop, Ariz. […] An amount of powdered bacterial Gaussia luciferase obtained from Nanolight Technologies, Pinetop, Ariz., was dissolved in DMEM and diluted in control assay buffer until a reading could be obtained from a luminometer.

[4] = system: Gaussia luciferase secreted from mammalian cells; assay: Bioluminescence of mammalian-secreted Gaussia luciferase in assay buffer (luminometer);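 as to all read-outs here: mammalian cell culture supernatants containing secreted Gaussia luciferase were combined with coelenterazine assay buffer and light emission was read on a luminometer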; settings: for stability of the luminescent signal in the presence of different detergents: 0.2% and 0.02% detergent, no EDTA, read again after 15 minutes; for stability of the luminescent signal in the presence of different detergents / bioluminescence T = 0 / bioluminescence T = 15 / bioluminescence T = 45: 1.3 μM coelenterazine; for bioluminescence T = 0 / bioluminescence T = 15 / bioluminescence T = 45: 0.2% detergent final concentration in 0.5×PBS; for bioluminescence T = 0: T = 0 minutes; for bioluminescence T = 15: T = 15 minutes; for bioluminescence T = 45: T = 45 minutes; for effect on magnitude (M at t = 1-2 minutes) of bioluminescent signal, Mammalian Gluc / effect on stability (S at time = 7-10 minutes) of bioluminescent signal, Mammalian Gluc: comparison: 1% EDTA to 0%, 0.2% NP40 to 0.025% or 0%, 4 μM coel. to 1.3 μM, 4 μM benzyl coel. to 1.3 μM; for RLU: zero time; for effect on magnitude (M) of bioluminescent signal, Mammalian Gluc: NaCl conc. 0.075M compared to 0.5M; for Gaussia luciferase (mammalian) bioluminescence t = 0 / Gaussia luciferase (mammalian) bioluminescence t = 10: 1.3 μM substrate in 0.5xPBS; for Gaussia luciferase (mammalian) bioluminescence t = 0: t = 0 minutes; for Gaussia luciferase (mammalian) bioluminescence t = 10: t = 10 minutes
Source text: Reagents used in the examples include: PBS (Amresco, Solon, Ohio), PBS with Ca/Mg/K (Invitrogen, Carlsbad, Calif.), Igepal CA-630 referred to throughout as NP40 (Sigma Aldrich, St. Louis, Mo.), Standard Renilla assay reagent (Promega, Madison, Wis.), coelenterazine and benzyl coelenterazzine (Prolume/NanoLight Technologies, Pinetop, Ariz.), expression vector for Gaussia luciferase in mammals (New England Biolabs, Inc., Ipswich, Mass.), Dulbecco's minimal essential medium (DMEM) (Invitrogen, Carlsbad, Calif.) used for diluting mammalian and bacterial expressed Gaussia luciferase. Measurements of bioluminescence were carried out with a luminometer (Turner TD2020 luminometer, Turner BioSystems, Sunnyvale, Calif.).
An amount of this coelenterazine solution was added to the assay buffer to a final concentration in the range of I-10 μM. 50 μl of the assay buffer was mixed with 20 μl of sample containing luciferase and bioluminescence was measured using a luminometer.
In this example, 20 μl of mammalian Gaussia luciferase samples (cell supernatants) were mixed with 8 μl of the indicated detergents at 2% and 0.2% concentration (final concentration of detergents in assay solution was 0.2% and 0.02%) and 50 μl of the Gaussia luciferase assay reagent (0.5×PBS, no EDTA, 1.3 μM coelenterazine) and read in a Turner TD2020 Luminometer, Turner BioSystems, Sunnyvale, Calif. The samples were read again after 15 minutes to evaluate the stability of the luminescent signal in the presence of different detergents.

[5] = 1.3 μM substrate, 0.5×PBS, 1% EDTA, 0.025% NP40, compared with 1.3 μM coelenterazine

Firefly luciferase, sequence (P08659 whole entry): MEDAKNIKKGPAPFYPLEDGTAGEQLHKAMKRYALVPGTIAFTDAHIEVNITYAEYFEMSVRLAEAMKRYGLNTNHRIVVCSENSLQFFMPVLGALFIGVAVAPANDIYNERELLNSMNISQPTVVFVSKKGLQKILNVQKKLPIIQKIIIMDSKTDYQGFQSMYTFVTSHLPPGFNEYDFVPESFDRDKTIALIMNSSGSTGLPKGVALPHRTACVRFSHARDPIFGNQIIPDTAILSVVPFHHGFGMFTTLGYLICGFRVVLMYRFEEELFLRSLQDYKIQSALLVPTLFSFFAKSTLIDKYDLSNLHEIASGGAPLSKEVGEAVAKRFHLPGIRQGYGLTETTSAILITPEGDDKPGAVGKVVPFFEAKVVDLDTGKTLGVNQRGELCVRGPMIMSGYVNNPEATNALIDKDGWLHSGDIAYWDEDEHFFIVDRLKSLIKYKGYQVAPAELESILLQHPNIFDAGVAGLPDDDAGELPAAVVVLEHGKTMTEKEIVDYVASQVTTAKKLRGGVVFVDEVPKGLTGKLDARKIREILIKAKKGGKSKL

| Molecule | effect of 0.2% detergent on Renilla luciferase activity (FIG. 7) [2] | effect on magnitude (M at t = 1-2 minutes) of bioluminescent signal, Bacterial Rluc [2] | effect on stability (S at time = 7-10 minutes) of bioluminescent signal, Bacterial Rluc [2] | effect on magnitude (M at t = 1-2 minutes) of bioluminescent signal, bacterial Gluc [3] | bioluminescence T = 0 ([4]; 1% EDTA) [RLU] | bioluminescence T = 15 ([4]; 1% EDTA) [RLU] | bioluminescence T = 45 ([4]; 1% EDTA) [RLU] | effect on magnitude (M at t = 1-2 minutes) of bioluminescent signal, Mammalian Gluc [4] | effect on stability (S at time = 7-10 minutes) of bioluminescent signal, Mammalian Gluc [4] | further results |
| --- | --- | --- | --- | --- | --- | --- | --- | --- | --- | --- |
| NP40 | stabilizing effect | M down | S up | M down | 87 | 112 | 79 | M down | S up | effect on stability (S at time = 7-10 minutes) of bioluminescent signal, Firefly ([1]; 0.2% NP40 compared to 0.025% or 0%): S up; stability of the luminescent signal in the presence of different detergents [2]: optimum stability; effect on stability (S at time = 7-10 minutes) of bioluminescent signal, bacterial Gluc [3]: S up; stability of the luminescent signal in the presence of different detergents ([4]; 0.5×PBS): optimum stability |
| [Cl-].[Na+] [NaCl, sodium chloride] |  |  |  |  |  |  |  |  |  | RLU ([4]; 0.175M NaCl in adjusted 0.5 × PBS + 1% EDTA + 0.025% NP40 + 1.3 μM coel.): 1322 RLU and 1350 RLU and 1242 RLU; RLU ([4]; 0.275M NaCl in adjusted 0.5 × PBS + 1% EDTA + 0.025% NP40 + 1.3 μM coel.): 1364 RLU and 1252 RLU and 1204 RLU; RLU ([4]; 0.375M NaCl in adjusted 0.5 × PBS + 1% EDTA + 0.025% NP40 + 1.3 μM coel.): 1129 RLU and 1098 RLU and 1246 RLU; RLU ([4]; 0.5M NaCl in adjusted 0.5 × PBS + 1.3 μM coel.): 1212 RLU and 701 RLU; RLU ([4]; 0.575M NaCl in adjusted 0.5 × PBS + 1% EDTA + 0.025% NP40 + 1.3 μM coel.): 1049 RLU and 1035 RLU and 1149 RLU; RLU ([4]; 1M NaCl in adjusted 0.5 × PBS + 1.3 μM coel.): 760 RLU and 750 RLU; effect on magnitude (M) of bioluminescent signal, Mammalian Gluc ([4]; + EDTA): M same + EDTA; effect on magnitude (M) of bioluminescent signal, Mammalian Gluc ([4]; −EDTA-NP40): M down |
| Oc1ccc(Cc2nc3c(Cc4ccccc4)nc(-c4ccc(O)cc4)cn3c2O)cc1 [Coel., coelenterazine] |  | M up | S down | M up |  |  |  | M up |  | Renilla luciferase bioluminescence t = 0 [2]: 2296 and 1790 and 2520; Renilla luciferase bioluminescence t = 20 [2]: 194 and 139 and 211; Gaussia luciferase (bacterial) bioluminescence t = 0 ([3]; 0.025% NP40): 1630 and 1837 and 1903; Gaussia luciferase (bacterial) bioluminescence t = 10 ([3]; 0.025% NP40): 58 and 59 and 60; effect of coelenterazine concentrations greater than 4 μM on luciferase activity (FIG. 4B) ([3]; 1.3-25 μM coelenterazine): no significant increases in luciferase activity; Gaussia luciferase (mammalian) bioluminescence t = 0 ([4]; 0.025% NP40): 594 and 565 and 556; Gaussia luciferase (mammalian) bioluminescence t = 10 ([4]; 0.025% NP40): 31 and 30 and 29; effect of coelenterazine concentrations greater than 4 μM on luciferase activity (FIG. 4A) ([4]; 1.3-25 μM coelenterazine in 0.5×PBS, 1% EDTA, 0.025% NP40, zero time): no significant increase in luciferase activity |
| O=C(O)CN(CCN(CC(=O)O)CC(=O)O)CC(=O)O [EDTA] |  | M down | S down | M down |  |  |  | M down | S up | effect on magnitude (M at t = 1-2 minutes) of bioluminescent signal, Firefly ([1]; 1% EDTA compared to 0%): M down |
| benzyl coelenterazine [Benzyl Coel.] |  | M up | S up | M down |  |  |  | M down | S down | Renilla luciferase bioluminescence t = 0 [2]: 9036 and 7687 and 7955; Renilla luciferase bioluminescence t = 20 [2]: 2234 and 1944 and 1359; suitability as substrate (FIG. 9) ([2]; 1.3 μM substrate, 0.5×PBS, 0.025% NP40, 1% EDTA, compared with 1.3 μM coelenterazine): good substrate; Gaussia luciferase (bacterial) bioluminescence t = 0 ([3]; 0.025% NP40): 81.75 and 83 and 84; Gaussia luciferase (bacterial) bioluminescence t = 10 ([3]; 0.025% NP40): 7.9 and 8.1; suitability as substrate (FIG. 8) [3, 5]: poor substrate; effect on stability (S at time = 7-10 minutes) of bioluminescent signal, bacterial Gluc [3]: S down; Gaussia luciferase (mammalian) bioluminescence t = 0 ([4]; 0.025% NP40): 34 and 30 and 31; Gaussia luciferase (mammalian) bioluminescence t = 10 ([4]; 0.025% NP40): 3.49 and 3.6 and 3.66; suitability as substrate (FIG. 8) [4, 5]: poor substrate |
| CCCCCCCCCCCCOS(=O)(=O)[O-].[Na+] [SDS, sodium dodecyl sulfate] |  |  |  |  | 0 | 0 | 0 |  |  |  |
| deoxycholate [DOC] |  |  |  |  | 4 | 2 | 2 |  |  |  |
| CCCCCCCC/C=C\CCCCCCCC(=O)OCCOCC(OCCO)C1OCC(OCCO)C1OCCO (stereo not shown) [Tween80] | stabilizing effect |  |  |  | 128 | 101 | 58 |  |  |  |
| Triton X-100 | stabilizing effect |  |  |  | 59 | 80 | 63 |  |  | stability of the luminescent signal in the presence of different detergents [2]: optimum stability; stability of the luminescent signal in the presence of different detergents ([4]; 0.5×PBS): optimum stability |
